Laboratory results taken from publication PMC12096669, “Structural isomerisation affects the antitubercular activity of adamantyl-isoxyl adducts” (Journal of Enzyme Inhibition and Medicinal Chemistry, 2025).
Values after ≈ are worked out from the molar mass of the structure shown. Where two headings read alike, the source gives them in different places.

Key:
[1] = test system: E. faecalis NCTC 775; assay: Non-mycobacterial REMA assay; type: cell-based; conditions: Enterococcus faecalis, NCTC775, read-out: Minimum inhibitory concentration 95%
[2] = test system: S. pyogenes NCTC 8198; assay: Non-mycobacterial REMA assay; type: cell-based; conditions: Streptococcus pyogenes, NCTC8198, read-out: Minimum inhibitory concentration 95%
[3] = test system: E. coli K12; assay: Non-mycobacterial REMA assay; type: cell-based; conditions: Escherichia coli, read-out: Minimum inhibitory concentration 95%
Procedure: (§1) Bacterial minimum inhibition concentrations (MIC) were determined using the Resazurin Microtiter Assay (REMA) method according to Palomino et al.[28] Stock solutions of the tested compounds were prepared in sterile dimethyl sulfoxide (DMSO), then diluted in 7H9OPALPen^1Cyc^10(Kan^25) to obtain a final drug concentration range of 32–0.032 μg/mL. A suspension of the test Mycobacterium was cultured in 7H9OPALPen^1Cyc^10(Kan^25) containing 0.05% v/v Tween^80 for one week at 37 °C, 5% CO2. The bacterial suspension was adjusted to 0.5 McFarland and diluted in 7H9OPALPen^1Cyc^10(Kan^25) 1:25. 100 μL of the inoculum was added to each well of a 96-well microplate together with 100 μL of the compound titration. The plate was incubated at 37 °C, 5% CO2. After 5 days, 10.5 μL 0.1% (w/v) sterile resazurin (solubilised in sterile PBS containing 0.02% v/v Tween^80) was added. Reduced resazurin was detected using fluorescence (Ex/Em 530/590 nm) in a FLUOstar Optima, BMG Labtech. All titre measurements were plotted in SigmaPlot™ and 4-parameter logistic (4PL) model regressions conducted. The relative MIC95 of each curve was calculated and averaged (Table 1). Testing was performed in duplicate with two independent biological repeats. […] Though, for these cultures, dilutions were performed at 1:125 prior to inoculation of the plate and incubation for 4 h (Supplementary Table 3). Known antitubercular agents used in this study were rifampicin (RIF), isoniazid (INH), ISO, EMB, ethionamide (ETH), linezolid (LZD), delamanid (DEL) and moxifloxacin (MOX).

[4] = test system: S. enterica NCTC 6754; assay: Non-mycobacterial REMA assay; type: cell-based; conditions: Salmonella enterica, NCTC6754, read-out: Minimum inhibitory concentration 95%
Procedure: as §1

[5] = test system: S. agalactiae NCTC 8181; assay: Non-mycobacterial REMA assay; type: cell-based; conditions: Streptococcus agalactiae, NCTC8181, read-out: Minimum inhibitory concentration 95%
[6] = test system: E. cloacae NCTC 10005; assay: Non-mycobacterial REMA assay; type: cell-based; conditions: Enterobacter cloacae, NCTC10005, read-out: Minimum inhibitory concentration 95%
[7] = test system: HepG2 human liver cancer cell line; assay: MTS cytotoxicity assay, liver cells; type: cell-based; conditions: 96 h, read-out: MTS percentage survival @ 100 µM
[8] = test system: Mtb mc^27902 pMV261; type: cell-based, Mycobacterium tuberculosis; conditions: in the presence of glucose; 37 °C, 30 min
[9] = test system: K. pneumoniae NCTC 9633; assay: Non-mycobacterial REMA assay; type: cell-based; conditions: Klebsiella pneumoniae, NCTC9633, read-out: Minimum inhibitory concentration 95%
[10] = test system: E. faecium NCTC 7171; assay: Non-mycobacterial REMA assay; type: cell-based; conditions: Enterococcus faecium, NCTC7171, read-out: Minimum inhibitory concentration 95%
[11] = test system: AC10 hybrid adult ventricular cardiomyocytes; assay: MTS cytotoxicity assay, cardiomyocytes; type: cell-based; conditions: Homo sapiens, AC10 cardiac, 96 h, read-out: MTS percentage survival @ 100 µM
[12] = test system: RAW264.7 murine macrophage cells; assay: cells; type: cell-based; conditions: for viability at 100 µM / IC50: Mus musculus; for viability at 100 µM: RAW264.7, 96 h, read-out: MTS percentage survival @ 100 µM; for IC50: RAW264.7 macrophages, 0 to 100 µM, read-out: IC50 (cell viability, MTS assay); for selectivity index (SI): from RAW264.7 IC50 and Mtb MIC95
[13] = test system: Mtb mc^27902 pMV261; assay: microbe, parasite or virus in culture; type: cell-based; conditions: Mycobacterium tuberculosis
[14] = test system: Mtb mc^27902 pMV261; type: cell-based, Mycobacterium tuberculosis; conditions: for TMM levels (TLC): at the highest concentrations
[15] = test system: A. baumannii NCTC 12156; assay: Non-mycobacterial REMA assay; type: cell-based; conditions: Acinetobacter baumannii, NCTC12156, read-out: Minimum inhibitory concentration 95%
[16] = test system: S. aureus NCTC 2981; assay: Non-mycobacterial REMA assay; type: cell-based; conditions: Staphylococcus aureus, NCTC2981, read-out: Minimum inhibitory concentration 95%
[17] = test system: B. cereus NCTC 7464; assay: Non-mycobacterial REMA assay; type: cell-based; conditions: Bacillus cereus, NCTC7464, read-out: Minimum inhibitory concentration 95%
[18] = test system: P. aeruginosa DSM 19880; assay: Non-mycobacterial REMA assay; type: cell-based; conditions: Pseudomonas aeruginosa, DSM19880, read-out: Minimum inhibitory concentration 95%
[19] = test system: Mtb mc^27902 pMV261; assay: Synergy (two-drug checkerboard style) assay; type: cell-based, Mycobacterium tuberculosis; conditions: in combination with RIF
[20] = test system: M. bovis BCG; conditions: library of 52,000 compounds; cited from earlier work
[21] = RAW264.7 macrophage, 100 µM, 96 h
[22] = mc^27902 pMV261, REMA, read-out: Mtb MIC95
[23] = values used for the SI, in brackets, […], read-out: MIC95
[24] = values used for the SI, […], read-out: MIC95

Compound | MIC [1] | MIC [2] | MIC [3] | MIC [4] | MIC [5] | MIC [6] | viability at 100 µM [7] | MIC [9] | MIC [10] | viability at 100 µM [11] | viability at 100 µM [12, 21] | IC50 [12] | MIC [13, 22] | MIC [15] | MIC [16] | MIC [17] | MIC [18] | other results
CC(C)CCOc1ccc(NC(=S)NC23CC4CC(CC(C4)C2)C3)cc1 [Ad-1-ISO, 1-((3s,5s,7s)-adamantan-1-yl)-3–(4-(isopentyloxy)phenyl)thiourea] | > 32 µg/mL | > 32 µg/mL | > 32 µg/mL | > 32 µg/mL | > 32 µg/mL | > 32 µg/mL | 16.1 ± 7.2% | > 32 µg/mL | > 32 µg/mL | 55 ± 13.2% | 73.8 ± 7.5% | > 100 µM | 1.08 µg/mL | > 32 µg/mL | > 32 µg/mL | > 32 µg/mL | > 32 µg/mL | efflux of EtBr [8]: significantly increased the overall efflux of EtBr; selectivity index (SI) [12]: > 100; effect on mycolic acid biosynthesis (FAMEs/MAMEs, TLC/autoradiography) [14]: Depletion of mycolates into the cell wall was only observed at the highest concentrations tested; TMM levels (TLC) [14]: slight increase in the TMM levels
CC(C)CCOc1ccc(NC(=S)NC2C3CC4CC(C3)CC2C4)cc1 (stereo not drawn) [Ad-2-ISO, 1-((1r,3r,5r,7r)-adamantan-2-yl)-3–(4-(isopentyloxy)phenyl)thiourea] | > 32 µg/mL | > 32 µg/mL | > 32 µg/mL | > 32 µg/mL | > 32 µg/mL | > 32 µg/mL | 13.4 ± 5.1% | > 32 µg/mL | > 32 µg/mL | 51.1 ± 17.7% | 22.5 ± 0.9% | 95.3 µM | 2.88 µg/mL | > 32 µg/mL | > 32 µg/mL | > 32 µg/mL | > 32 µg/mL | FICI [19]: 0.52; efflux of EtBr [8]: significantly increased the overall efflux of EtBr; TDM and glucose monomycolate levels (TLC) [14]: decrease in TDM and glucose monomycolate; effect on mycolic acid biosynthesis (FAMEs/MAMEs, TLC/autoradiography) [14]: more significant reduction in radiolabel incorporation; TMM levels (TLC) [14]: slight increase in the TMM levels
CC[C@@H](CO)NCCN[C@@H](CC)CO [EMB, Ethambutol] | > 32 µg/mL | > 32 µg/mL | > 32 µg/mL | > 32 µg/mL | > 32 µg/mL | > 32 µg/mL | 95.2 ± 6% | > 32 µg/mL | > 32 µg/mL | 93.7 ± 2.7% | 88.5 ± 8.6% | – | 1.99 µg/mL | > 32 µg/mL | > 32 µg/mL | > 32 µg/mL | > 32 µg/mL | –
CCc1cc(C(N)=S)ccn1 [ETH, ethionamide] | > 32 µg/mL | > 32 µg/mL | > 32 µg/mL | > 32 µg/mL | > 32 µg/mL | > 32 µg/mL | 92.7 ± 7% | > 32 µg/mL | > 32 µg/mL | 90.5 ± 4.7% | – | – | – | > 32 µg/mL | > 32 µg/mL | > 32 µg/mL | > 32 µg/mL | viability at 100 µM [12]: 100 ± 5.6%; MIC ([13]; read-out: Mtb MIC95): 1.05 µg/mL
NNC(=O)c1ccncc1 [INH, isoniazid] | > 32 µg/mL | > 32 µg/mL | > 32 µg/mL | > 32 µg/mL | > 32 µg/mL | > 32 µg/mL | 97 ± 3.8% | > 32 µg/mL | > 32 µg/mL | 92.6 ± 1.2% | 96.3 ± 2% | – | 0.04 µg/mL | > 32 µg/mL | > 32 µg/mL | > 32 µg/mL | > 32 µg/mL | –
CC(=O)NC[C@H]1CN(c2ccc(N3CCOCC3)c(F)c2)C(=O)O1 [LZD, linezolid] | 0.921 µg/mL (≈ 2.73 µM) | 0.543 µg/mL (≈ 1.61 µM) | > 32 µg/mL | > 32 µg/mL | 2.1 µg/mL (≈ 6.23 µM) | > 32 µg/mL | 105 ± 5.1% | > 32 µg/mL | 0.158 µg/mL (≈ 0.468 µM) | 103 ± 1.8% | 38.3% | 16.2 µM | 0.91 µg/mL | 31.1 µg/mL (≈ 92.1 µM) | 23.7 µg/mL (≈ 70.3 µM) | 1.75 µg/mL (≈ 5.2 µM) | > 32 µg/mL | MIC [13, 23]: 0.55 µg/mL; MIC [13, 24]: 1.63 µM
CO[C@H]1/C=C/O[C@@]2(C)Oc3c(C)c(O)c4c(O)c(c(/C=N/N5CCN(C)CC5)c(O)c4c3C2=O)NC(=O)/C(C)=C\C=C\[C@H](C)[C@H](O)[C@@H](C)[C@@H](O)[C@@H](C)[C@H](OC(C)=O)[C@@H]1C [RIF, rifampicin] | > 12.8 µg/mL | 6.16 µg/mL (≈ 7.48 µM) | 3.03 µg/mL (≈ 3.69 µM) | 12.8 µg/mL (≈ 15.5 µM) | 0.08 µg/mL (≈ 0.0972 µM) | > 12.8 µg/mL | 47.7 ± 3.2% | > 12.8 µg/mL | 1.73 µg/mL (≈ 2.11 µM) | 40.7 ± 6.6% | 66.3 ± 5% | – | 0.04 µg/mL | 1.36 µg/mL (≈ 1.66 µM) | < 0.0125 µg/mL | 0.045 µg/mL (≈ 0.0547 µM) | > 12.8 µg/mL | –
CC(C)=CCC/C(C)=C/CNCCNC1C2CC3CC(C2)CC1C3 (stereo not drawn) [SQ109, N-Adamantan-2-yl-N’-((E)-3,7-dimethylocta-2,6-dienyl)ethane-1,2-diamine] | 21.1 µg/mL (≈ 63.8 µM) | > 32 µg/mL | 17.4 µg/mL (≈ 52.5 µM) | > 32 µg/mL | > 32 µg/mL | 16.8 µg/mL (≈ 50.9 µM) | 15.1 ± 4.1% | > 32 µg/mL | 20.1 µg/mL (≈ 60.8 µM) | 40.2 ± 2.3% | 61.1 ± 2.9% | > 100 µM | 0.33 µg/mL | 20.7 µg/mL (≈ 62.7 µM) | 16.9 µg/mL (≈ 51 µM) | > 32 µg/mL | > 32 µg/mL | selectivity index (SI) [12]: > 100; MIC [13, 23]: 0.12 µg/mL; MIC [13, 24]: 0.36 µM
O=C(N/N=C/c1cccc(F)c1)C12CC3CC(CC(C3)C1)C2 [adamantyl-hydrazone] | – | – | – | – | – | – | – | – | – | – | – | – | – | – | – | – | – | MIC [20]: < 2 µg/mL
